Data: PMC11645656, “MRGPRX4 mediates phospho-drug associated pruritus in a humanized mouse model” (Science translational medicine, 2024)
Values joined by “and” are separate entries in the source; they are usually repeats but may differ in a detail not shown here. Equal entries are not always repeated. *1 amine or outer side, *2 acyl side, *3 side chain or, on linkers, in order; H or OH if unused. Where a SMILES comes first, the peptide text is derived from it. Bridges are numbered along the chain shown (N, C = ends). [ ]: non-standard residue; d: D form. X1 = CC(=O)NC(C(=O)OC(C(C)C)C(N[*:1])C(=O)[*:2])C(O)C(C)C; PhLac = O=C(O)[CH](O)Cc1ccccc1; NMeT = CN[CH](C(=O)O)[CH](C)O; NMeA = CN[CH](C)C(=O)O; NMeDha = C=C(NC)C(=O)O

What was measured:
MRGPRX4 (S83) = target: T1, MRGPRX4 (S83) (Homo sapiens, UniProt Q96LA9, L83S); experiment: EC50 determination, intracellular calcium mobilization in MRGPRX4 stably expressed HEK293 cells (FLIPR Calcium 5, Flexstation-3); type: cell-based; design: Fig. 1D dose-response, calcium mobilization response (individual replicate) / calcium mobilization response (Fig. 1D dose-response raw data): unit not given here; conditions: for calcium mobilization response (Fig. 1D dose-response raw data) / Fig. 1D dose-response, calcium response at Concentration (M): individual replicate values; for EC50: MRGPRX4 stably expressed HEK293 cells, calcium mobilization, read-out: EC50; for Hill coefficient: dose-response curve fitting, table S1; for Fig. 1D dose-response, calcium response at Concentration (M): propofol series
T1 construct: expressed in transfected cells
T1 sequence (Q96LA9 whole entry L83S): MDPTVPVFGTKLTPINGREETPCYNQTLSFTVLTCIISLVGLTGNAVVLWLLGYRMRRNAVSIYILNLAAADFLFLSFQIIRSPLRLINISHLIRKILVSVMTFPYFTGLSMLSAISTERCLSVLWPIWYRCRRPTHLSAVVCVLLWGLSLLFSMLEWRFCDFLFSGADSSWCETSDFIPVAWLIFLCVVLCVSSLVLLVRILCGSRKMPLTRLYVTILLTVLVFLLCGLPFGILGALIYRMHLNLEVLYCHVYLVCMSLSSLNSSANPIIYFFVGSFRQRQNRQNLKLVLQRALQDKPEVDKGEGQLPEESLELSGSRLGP
Description: HEK293 cells and MRGPRX4 stably expressed HEK293 cells were seeded in 100 μl culture media on 96-well plates at a density of 40,000 cells per well and incubated overnight. The next day, the media were replaced with a dye-loading solution from the FLIPR Calcium 5 assay kit (Molecular Devices), diluted in Hank's Balanced Salt Solution (HBSS) with 20 mM HEPES, pH 7.4. After 1 h of incubation at 37°C, cells were allowed to recover for 10 min in the dark at room temperature prior to performing intracellular calcium mobilization assay in a Flexstation-3 instrument with SoftMax®Pro 7.1 software (Molecular Devices). Serial concentrations of tested drugs were prepared in HBSS/HEPES solution at 3X concentration. […] Compounds were tested in triplicates and the signals were averaged. Responses were determined by subtracting the minimum signal (at the baseline before adding the drug) from the maximum signal (obtained after drug stimulation). Four-parameter logistic (4PL) curve fit was used to plot the dose-response curves. […] Both dose-response curve fitting and EC50s calculation are computed with GraphPad Prism software (version: 6.o or above).

[1] = system: MRGPRX4-expressing HEK293 cells (Gαq signaling pathway); experiment: Pharmacological blocker experiments: phospho-drug evoked calcium response in MRGPRX4-expressing HEK293 cells after inhibitor preincubation; conditions: 30 min preincubation; 10 µM YM 254890, 20 µM U73122, 10 µM thapsigargin; stimulated with fospropofol, fosphenytoin or dexamethasone phosphate
Description: Various HEK293 cell lines were plated on PDL-coated glass coverslips. […] For pharmacological blocker experiments, cells were pre-incubated with signaling pathway inhibitors, including YM254890, U73122, and thapsigargin, for 30 min before imaging.
Traces of [Ca2+] from MRGPRX4-expressing HEK293 cells stimulated with (A) 1 µM
U73122 (middle), or 10 µM sarco/endoplasmic reticulum Ca2+-ATPase inhibitor thapsigargin
(right) for 30 min before imaging.
independent experiments, each performed in quadruplicate.

Q: Which “calcium mobilization response (Fig. 1D dose-response raw data)” value (MRGPRX4 (S83); concentration 4.88281e-7 M) does the source give for `CCC1(c2ccccc2)NC(=O)NC1=O` (centres unmarked) [Phenylethylhydantoin] here?
A: The value was -36.084 and -46.830 and -25.168 and -25.995 and -41.232 and -40.854 and -21.141 and -50.216 and -36.724.

Q: And the “calcium mobilization response (Fig. 1D dose-response raw data)” value (MRGPRX4 (S83); concentration 9.76563e-7 M)?
A: The value was -38.906 and -40.253 and -36.747 and -35.963 and -45.530 and -34.413 and -90.977 and -3.770 and -21.159.

Q: And the “calcium mobilization response (Fig. 1D dose-response raw data)” value (MRGPRX4 (S83); concentration 1.95313e-6 M)?
A: The value was -39.850 and -47.267 and -41.649 and -23.282 and -47.762 and -57.722 and -64.532 and -47.904 and -16.330.

Q: And the “calcium mobilization response (Fig. 1D dose-response raw data)” value (MRGPRX4 (S83); concentration 3.90625e-6 M)?
A: The value was -41.691 and -47.727 and -40.039 and -70.885 and -55.070 and -3.502 and -50.619 and -10.963 and -67.875.

Q: What about the “calcium mobilization response (Fig. 1D dose-response raw data)” value (MRGPRX4 (S83); concentration 7.8125e-6 M) of the same compound?
A: Its value is -54.750 and -48.340 and -51.910 and -49.343 and -57.168 and -48.489 and -88.910 and -37.952 and -28.139.

Q: What about the “calcium mobilization response (Fig. 1D dose-response raw data)” value (MRGPRX4 (S83); concentration 1.5625e-5 M) of the same compound?
A: The value was -44.078 and -57.965 and -55.228 and -49.591 and -44.073 and -63.607 and -50.842 and -52.493 and -53.936.

Q: And the “calcium mobilization response (Fig. 1D dose-response raw data)” value (MRGPRX4 (S83); concentration 3.125e-5 M)?
A: The value was -43.665 and -49.381 and -54.677 and -65.107 and -76.615 and -6.000 and -68.649 and -47.158 and -31.916.

Q: And the “calcium mobilization response (Fig. 1D dose-response raw data)” value (MRGPRX4 (S83); concentration 6.25e-5 M)?
A: The value was -55.764 and -53.161 and -56.227 and -7.830 and -129.161 and -28.161 and -12.225 and -71.995 and -80.931.

Q: What about the “calcium mobilization response (Fig. 1D dose-response raw data)” value (MRGPRX4 (S83); concentration 0.00025 M) of the same compound?
A: The value was -45.731 and -49.520 and -42.661 and -67.761 and -17.367 and -52.783 and -55.357 and -16.011 and -66.544.

Q: What about the “calcium mobilization response (Fig. 1D dose-response raw data)” value (MRGPRX4 (S83); concentration 0.0005 M) of the same compound?
A: Its value is -37.983 and -36.120 and -36.080 and -77.623 and -5.808 and -26.753 and -42.653 and -37.379 and -30.151.

Q: How did the EC50 (MRGPRX4 (S83)) turn out when `C[C@]12C=CC(=O)C=C1CC[C@@H]1[C@@H]2[C@@H](O)C[C@@]2(C)[C@H]1CC[C@]2(O)C(=O)COP(=O)(O)O` [Prednisolone phosphate] was run?
A: The EC50 was 0.267 µM.

Q: And the Hill coefficient (MRGPRX4 (S83))?
A: The Hill coefficient was 0.753.

Q: How did the “Fig. 1D dose-response, calcium response at Concentration (M)” value (from here on “Fig. 1D dose-response, calcium response”) (MRGPRX4 (S83); 9.76563e-7 M) turn out when `CC(C)c1cccc(C(C)C)c1O[C@@H]1O[C@H](C(=O)O)[C@@H](O)[C@H](O)[C@H]1O` [Propofol b-D-glucuronide] was run?
A: Its value is 33.404 and 17.610 and 15.299 and 5.092 and 25.748 and 35.472 and 37.279 and 14.971 and 14.062.

Q: And the “Fig. 1D dose-response, calcium response” value (MRGPRX4 (S83); 1.95313e-6 M)?
A: The value was 24.553 and 28.290 and 26.471 and 25.162 and 11.839 and 42.312 and 38.770 and 25.122 and 15.422.

Q: What about the “Fig. 1D dose-response, calcium response” value (MRGPRX4 (S83); 3.90625e-6 M) of the same compound?
A: Its value is -0.931 and -0.509 and -0.147 and -0.531 and -0.497 and -0.558 and -1.252 and -0.171 and -0.163.

Q: What about the “Fig. 1D dose-response, calcium response” value (MRGPRX4 (S83); 7.8125e-6 M) of the same compound?
A: Its value is -3.944 and -3.544 and -1.450 and -3.087 and -3.091 and -2.761 and -3.250 and -1.367 and -4.322.

Q: What about the “Fig. 1D dose-response, calcium response” value (MRGPRX4 (S83); 1.5625e-5 M) of the same compound?
A: Its value is -14.193 and -2.564 and -12.325 and -15.196 and -3.788 and -10.098 and -11.561 and -10.981 and -6.540.

Q: And the “Fig. 1D dose-response, calcium response” value (MRGPRX4 (S83); 3.125e-5 M)?
A: Its value is -0.025 and -0.623 and -1.002 and -0.534 and -0.882 and -0.234 and -0.728 and -0.769 and -0.154.

Q: And the “Fig. 1D dose-response, calcium response” value (MRGPRX4 (S83); 6.25e-5 M)?
A: Its value is -11.462 and -7.089 and -18.181 and -19.274 and -11.464 and -5.994 and -9.636 and -15.344 and -11.752.

Q: And the “Fig. 1D dose-response, calcium response” value (MRGPRX4 (S83); 0.00025 M)?
A: The value was -8.452 and -1.759 and -25.311 and -28.879 and -1.342 and -5.301 and -7.817 and -14.781 and -12.923.

Q: And the “Fig. 1D dose-response, calcium response” value (MRGPRX4 (S83); 0.0005 M)?
A: Its value is -2.705 and -17.232 and -3.163 and -5.843 and -6.495 and -10.762 and -7.609 and -4.103 and -11.388.

Q: What about the “Fig. 1D dose-response, calcium response” value (MRGPRX4 (S83); 0.001 M) of the same compound?
A: The value was -9.560 and -7.574 and -9.738 and -14.721 and -4.551 and -7.600 and -11.650 and -7.050 and -8.173.

Q: Which results are given for `Cn1nnc(-c2ccc(-c3ccc(N4C[C@H](COP(=O)(O)O)OC4=O)cc3F)cn2)n1` [Tedizolid phosphate]?
A: EC50 (MRGPRX4 (S83)): 0.157 µM; Hill coefficient (MRGPRX4 (S83)): 1.352

Q: Which “Effect of inhibitor on phospho-drug evoked calcium response” value [1] does the source give for `COc1ccc2c(c1)CC[C@@H]1[C@@H]2CC[C@]2(C)[C@@H](NCCCCCCN3C(=O)C=CC3=O)CC[C@@H]12` [U73122] here?
A: Its value is “abolished the calcium response”.

Q: With `C=C1C(=O)NC(C)C(=O)N(C)C(C)C(=O)NC(C(OC(=O)C(NC(C)=O)C(O)C(C)C)C(C)C)C(=O)N(C)C(C(C)OC)C(=O)OC(C)C(NC(C)=O)C(=O)OC(Cc2ccccc2)C(=O)N1C` (centres unmarked) [YM-254890] (Ac-T[PhLac][NMeDha]A[NMeA][X1][NMeT](Me); ester 1-C; configuration not given here) as the compound, how does the “Effect of inhibitor on phospho-drug evoked calcium response” value [1] read?
A: The value was “abolished the calcium response”.

Q: With `C/C=C(/C)C(=O)O[C@H]1C(C)=C2[C@H]([C@@H]1OC(=O)CCCCCCC)[C@@](C)(OC(C)=O)C[C@H](OC(=O)CCC)[C@@]1(O)[C@H]2OC(=O)[C@@]1(C)O` [thapsigargin] as the compound, how does the “Effect of inhibitor on phospho-drug evoked calcium response” value [1] read?
A: Its value is “abolished the calcium response”.

Q: For Dexamethasone palmitate, which “Fig. 1D dose-response, calcium mobilization response (individual replicate)” value (MRGPRX4 (S83); Concentration 9.76563e-7 M) is on record?
A: Its value is -18.225 and -22.739 and -7.984 and -16.162 and -15.021 and -13.070 and 2.408 and -2.265 and -6.745.

Q: What about the “Fig. 1D dose-response, calcium mobilization response (individual replicate)” value (MRGPRX4 (S83); Concentration 1.95313e-6 M) of the same compound?
A: The value was -6.511 and -7.350 and 3.472 and -4.164 and -15.203 and -5.200 and 2.167 and -2.706 and -6.484.

Q: What about the “Fig. 1D dose-response, calcium mobilization response (individual replicate)” value (MRGPRX4 (S83); Concentration 3.90625e-6 M) of the same compound?
A: Its value is -3.747 and 10.479 and -10.773 and -3.912 and -11.558 and -2.335 and 1.476 and 2.520 and -1.305.

Q: What about the “Fig. 1D dose-response, calcium mobilization response (individual replicate)” value (MRGPRX4 (S83); Concentration 7.8125e-6 M) of the same compound?
A: Its value is -30.862 and -16.831 and -16.502 and -2.263 and -11.827 and -17.176 and -5.630 and 3.868 and -9.469.

Q: What about the “Fig. 1D dose-response, calcium mobilization response (individual replicate)” value (MRGPRX4 (S83); Concentration 1.5625e-5 M) of the same compound?
A: The value was -23.657 and 30.652 and -26.797 and 1.282 and -0.449 and -0.613 and 8.674 and 6.385 and -0.252.

Q: What about the “Fig. 1D dose-response, calcium mobilization response (individual replicate)” value (MRGPRX4 (S83); Concentration 3.125e-5 M) of the same compound?
A: Its value is 88.602 and 69.392 and 95.399 and 41.739 and 60.580 and 65.413 and 42.682 and 17.645 and 71.002.

Q: What about the “Fig. 1D dose-response, calcium mobilization response (individual replicate)” value (MRGPRX4 (S83); Concentration 6.25e-5 M) of the same compound?
A: The value was 155.837 and 167.386 and 158.681 and 72.199 and 72.835 and 105.522 and 59.878 and 78.793 and 128.090.

Q: What about the “Fig. 1D dose-response, calcium mobilization response (individual replicate)” value (MRGPRX4 (S83); Concentration 0.00025 M) of the same compound?
A: Its value is 281.902 and 277.911 and 231.255 and 145.042 and 106.318 and 115.112 and 141.417 and 113.731 and 129.258.

Q: And the “Fig. 1D dose-response, calcium mobilization response (individual replicate)” value (MRGPRX4 (S83); Concentration 0.0005 M)?
A: Its value is 346.180 and 361.547 and 346.996 and 139.147 and 134.114 and 120.302 and 148.855 and 141.620 and 226.966.

Q: What about the “Fig. 1D dose-response, calcium mobilization response (individual replicate)” value (MRGPRX4 (S83); Concentration 0.001 M) of the same compound?
A: The value was 354.688 and 329.354 and 273.082 and 127.830 and 137.045 and 134.530 and 140.483 and 130.182 and 155.284.

Q: And the Hill coefficient (MRGPRX4 (S83))?
A: The Hill coefficient was 1.502.
